≈ marks a conversion by molar mass, not a printed value.
tested on: Mycobacterium tuberculosis CUH071; assay: In vitro antimycobacterial evaluation (alamarBlue); type: cell-based; conditions: 168 h, clinical isolate CUH071 with partial INH and PZA resistance, 7 days, read-out: MIC/IC90 M. tuberculosis

SMILES	MIC [µM]
CC(C)NC(=O)c1ccc2ccccc2n1 [Compound 1, N-Isopropylquinoline-2-carboxamide]	280 (≈ 60 µg/mL)
CCCCCCCCCCCCNC(=O)c1ccc2ccccc2n1 [Compound 2, N-Dodecylquinoline-2-carboxamide]	367 (≈ 125 µg/mL)
O=C(c1ccc2ccccc2n1)N1CCCC1 [Compound 3, 2-(Pyrrolidin-1-ylcarbonyl)quinoline]	552 (≈ 125 µg/mL)
O=C(NC1CCCC1)c1ccc2ccccc2n1 [Compound 5, N-Cyclopentylquinoline-2-carboxamide]	491 (≈ 118 µg/mL)
O=C(NC1CCCCC1)c1ccc2ccccc2n1 [Compound 6, N-Cyclohexylquinoline-2-carboxamide]	125 (≈ 31.8 µg/mL)
O=C(NC1CCCCCC1)c1ccc2ccccc2n1 [Compound 7, N-Cycloheptylquinoline-2-carboxamide]	111 (≈ 29.8 µg/mL)
O=C(NCCc1ccccc1)c1ccc2ccccc2n1 [Compound 11, N-(2-Phenylethyl)quinoline-2-carboxamide]	109 (≈ 30.1 µg/mL)
Cc1cccc(NC(=O)c2ccc3ccccc3n2)c1 [Compound 14b, N-(3-Methylphenyl)quinoline-2-carboxamide]	469 (≈ 123 µg/mL)
O=C(c1ccc2ccccc2c1)N1CCCC1 [Compound 22, 1-(2-Naphthoyl)pyrrolidine]	554 (≈ 125 µg/mL)
COc1ccccc1NC(=O)c1ccc2ccccc2c1 [Compound 32a, N-(2-Methoxyphenyl)-2-naphthamide]	901 (≈ 250 µg/mL)
NNC(=O)c1ccncc1 [INH, isoniazid, reference compound]	> 729
NC(=O)c1cnccn1 [PZA, pyrazinamide, reference compound]	> 812

— publication PMC6268315, “Investigating the Spectrum of Biological Activity of Substituted Quinoline-2-Carboxamides and Their Isosteres ^†” (Molecules, 2012)
